We go through two molecules from patent US11952375B2, “Crystalline forms of Mnk inhibitors” (eFFECTOR Therapeutics Inc., priority 2018, dated 2024).

The nature of series [1]: Solubility noted during palladium scavenging work. Particulars: qualitative; precluded use of common solid-supported palladium scavenging agents. The class given is physicochemical.
The nature of series [2]: Kinetic slurry study of the free base in various solvent systems; XRPD and equilibrium solubilities give relative polymorph stability. Particulars: slurries in various solvent systems, temperatures and water amounts; solids isolated at 2, 4, 6, 24, 72 hours. The class given is physicochemical. The procedure: For example, the free base of (5) was slurried at ambient temperature in various solvent systems, at various temperatures, with varying amounts of water. In each solvent condition, solids were isolated for XRPD analysis at 2, 4, 6, 24, and 72 hours. Equilibrium solubilities in these solvents were then calculated and used to identify ethanol for the final slurry step. The difference in free energy between solid phases with the same composition (i.e., polymorphs, hydrates, or solvates) is directly proportional to their relative solubilities.

Consider `Cc1cc(Nc2cc(N)ncn2)c(=O)n2c1C(=O)NC21CCCCC1` [Compound 5, 6′-((6-aminopyrimidin-4-yl)amino)-8′-methyl-2′H-spiro[cyclohexane-1,3′-imidazo[1,5-a]pyridine]-1′,5′-dione], for which the solubility result in series [1] is listed as “Low”.

As for `Cc1cc(Nc2cc(N)ncn2)c(=O)n2c1C(=O)NC21CCCCC1` [Form A, 6′-((6-aminopyrimidin-4-yl)amino)-8′-methyl-2′H-spiro[cyclohexane-1,3′-imidazo[1,5-a]pyridine]-1′,5′-dione], the “thermodynamic stability of polymorph” value in series [2] is “most thermodynamically stable polymorph”.
